Experimental findings from US20110008328A1, “METHOD FOR CONTROLLING GLUCOSE UPTAKE AND INSULIN SENSITIVITY” (Pfizer Inc., priority 2007, published 2011) are described below.

Experiment [1] is described as follows: Hyperinsulinemic euglycemic clamp in Zucker rats (rate of glucose disposal, Rd). It counts as in vivo, rat. The settings on record: obese Zucker (fa/fa) rats, post-Rx, pioglitazone 10 mg/kg/day in chow for 3 weeks; average ± standard error. As for the experimental part: Peripheral insulin sensitivity (measured as the rate of glucose disposal, Rd) of the rat and human groups was measured using the hyperinsulinemic euglycemic clamp procedure. Clinical characteristics of the rats and humans are detailed in Table 1. OPN expression in adipose tissue was elevated in obese, insulin resistant rats (17-fold) and humans (4.6-fold) compared to insulin sensitive lean controls. […] In fact, when the pre-treatment patient data was combined, there was a significant correlation between adipose tissue OPN RNA levels and Rd (FIG. 1C).
Male C57Bl/6J WT mice (cat #000664) and OPN KO mice (B6.Cg-Spp1tm2blh/J, cat #004936) were purchased from Jackson Laboratories. […]
(§1) Insulin sensitivity was determined by hyperinsulinemic euglycemic clamp, as previously published (Hevener, A L, et al., 2001, Diabetes 50, 2316-2322). […] Plasma glucose specific activity was measured after deproteinization with barium hydroxide and zinc sulfate (Revers, R R, 1984, J Clin Invest 73, 664-672). Hepatic glucose output (HGO) and glucose disposal rate (GDR) were calculated for the basal period and the steady-state portion of the glucose clamp using the Steele equation for steady-state conditions (Steele R. Influences of glucose loading and of injected insulin on hepatic glucose output. Ann N Y Acad Sci 82: 420-430, 1959). […]

Experiment [2] can be described thus: Body weight and fasting plasma analyses in Zucker rats. The settings on record: obese Zucker (fa/fa) rats, post-Rx, pioglitazone 10 mg/kg/day in chow for 3 weeks; average ± standard error. Type of experiment: in vivo, rat.
Source text: Male C57Bl/6J WT mice (cat #000664) and OPN KO mice (B6.Cg-Spp1tm2blh/J, cat #004936) were purchased from Jackson Laboratories. This OPN KO mouse line has been backcrossed into the C57Bl/6J background >10 generations. Mouse diets were as follows: normal chow diet (12% kcal from fat; Purina 5001, LabDiet) and high fat diet (41% kcal from fat; TD96132, Harlan Teklad). Mice were 4-6 months of age and age-matched in all studies. Male lean Zucker (fa/+) and fatty Zucker (fa/fa) rats were purchased from Charles River. […] All rats were nine weeks of age at time of terminal metabolic studies and tissue harvest. All animals were housed 1-3 per cage under controlled light (12:12 light:dark) and climate conditions. Animals had unlimited access to food and water.
as §1
Plasma insulins were measured by radioimmune assay kit (Linco Research, St. Charles, Mo.). Plasma FFA levels were measured enzymatically using a commercially available kit (NEFA C; Wako Chemicals USA). Triglycerides were measured using the Triglyceride-SL Assay (Diagnostic Chemicals Ltd.). Cholesterol was measured using the Chol kit and Roche/Hitachi analyzer (Roche). Tissue lysates were analyzed by SDS-PAGE, western blotting and chemiluminescence and by ELISA. Signal intensities of chemiluminescence autoradiographs were densitometrically quantified using a digital Kodak 3D Imagestation and associated digital image analysis software (Kodak, New. Haven, Conn.). […]

A short description of experiment [3]: Hyperinsulinemic-euglycemic clamp in human patients (rate of glucose disposal, Rd). Type of experiment: in vivo. The settings on record: obese, insulin resistant patients, post-Rx, pioglitazone 45 mg/day for 3 months; average ± standard error.
Experiment [4] is described as follows: BMI and fasting plasma analyses in human patients. It counts as in vivo. The settings on record: post-Rx, pioglitazone 45 mg/day for 3 months, average ± standard error. Here is the method: Baseline plasma samples were drawn and hyperinsulinemic-euglycemic clamps were performed in the morning after a 10 hr fast as previously described (Frias, J P et al., 2000, Diabetes Care 23, 64-69; Yu, J G et al., 2002, Diabetes 51, 2968-2974). The experimental protocol was approved by the Institutional Review Board of the University of California, San Diego. Informed written consent was obtained from each subject.
Plasma insulins were measured by radioimmune assay kit (Linco Research, St. Charles, Mo.). Plasma FFA levels were measured enzymatically using a commercially available kit (NEFA C; Wako Chemicals USA). Triglycerides were measured using the Triglyceride-SL Assay (Diagnostic Chemicals Ltd.). Cholesterol was measured using the Chol kit and Roche/Hitachi analyzer (Roche). Tissue lysates were analyzed by SDS-PAGE, western blotting and chemiluminescence and by ELISA. Signal intensities of chemiluminescence autoradiographs were densitometrically quantified using a digital Kodak 3D Imagestation and associated digital image analysis software (Kodak, New. Haven, Conn.). IL-1β, IL-12p70, IFNγ, IL-6, IL-10, Cxcl1 and TNFα levels in plasma and tissue lysates were measured using a multiplex (7-plex) ELISA (Meso Scale Discovery).

[5] abbreviates: lean, insulin sensitive patients.
Setting [6] is: obese, insulin resistant patients.

Turning to `CCc1ccc(CCOc2ccc(CC3SC(=O)NC3=O)cc2)nc1` (stereo not shown) [pioglitazone], the “Glucose disposal, Rd” value in experiment [1] stood at 30.6 ± 2.9 mg/kg/min. In addition, in experiment [2], the “Fasting plasma free fatty acids” value came to 0.69 ± 0.29 mmol/L, the Fasting plasma glucose was 124.8 ± 4.0 ^ mg/dL and the Fasting plasma triglyceride was found to be 108.0 ± 16.1 mg/dL. Moreover, the “Glucose disposal, Rd” value in experiment [3] came out at 5.9 ± 0.5 mg/kg/min. In experiment [4] (setting [5]), this compound yielded a Fasting plasma free fatty acids of 414 ± 90 µM, a Fasting plasma glucose of 87.6 ± 3.1 mg/dL, a Fasting plasma insulin of 10.1 ± 2.2 pmol/L and a Fasting plasma triglyceride of 76.0 ± 9.2 mg/dL. In experiment [4] (setting [6]), this compound gave a Fasting plasma free fatty acids of 434 ± 59 µM, a Fasting plasma glucose of 91.7 ± 2.5 mg/dL, a Fasting plasma insulin of 13.6 ± 1.6 pmol/L and a Fasting plasma triglyceride of 137.7 ± 7.2 mg/dL.
